In ChEMBL document CHEMBL3044825, “Synthesis and in vitro microbial activities of amides of pyridoquinolone” (2011):

Legend:
Type in all cases: functional
Details in all cases: read-out: IZ
Candida albicans = test: Antifungal activity against Candida albicans at 100 ug/ml by cup-plate method
Escherichia coli = test: Antibacterial activity against Escherichia coli at 100 ug/ml by cup-plate method
Pseudomonas aeruginosa = test: Antibacterial activity against Pseudomonas aeruginosa at 100 ug/ml by cup-plate method
Bacillus subtilis = test: Antibacterial activity against Bacillus subtilis at 100 ug/ml by cup plate method
Staphylococcus aureus = test: Antibacterial activity against Staphylococcus aureus at 100 ug/ml by cup-plate method

SMILES	zone of inhibition at 100 µg/mL (Candida albicans) [mm]	zone of inhibition at 100 µg/mL (Escherichia coli) [mm]	zone of inhibition at 100 µg/mL (Pseudomonas aeruginosa) [mm]	zone of inhibition at 100 µg/mL (Bacillus subtilis) [mm]	zone of inhibition at 100 µg/mL (Staphylococcus aureus) [mm]
O=C(Nc1ccc(S(=O)(=O)Nc2cccc([N+](=O)[O-])c2)cc1)c1cn(CCO)c2c(cc(Cl)c3ncccc32)c1=O	2	7	5	8	6
O=C(Nc1ccc(S(=O)(=O)Nc2ccc(Cl)cc2)cc1)c1cn(CCO)c2c(cc(Cl)c3ncccc32)c1=O	1	8	0	7	6
O=C(NC(=S)Nc1cccc(O)c1)c1cn(CCO)c2c(cc(Cl)c3ncccc32)c1=O	2	8	6	9	8
O=C(NC(=S)Nc1ccc([N+](=O)[O-])cc1)c1cn(CCO)c2c(cc(Cl)c3ncccc32)c1=O	5	10	9	12	11
COc1ccc(NS(=O)(=O)c2ccc(NC(=O)c3cn(CCO)c4c(cc(Cl)c5ncccc54)c3=O)cc2)cc1	3	9	10	10	9
O=C(NC(=S)Nc1cccc([N+](=O)[O-])c1)c1cn(CCO)c2c(cc(O)c3ncccc32)c1=O	0	9	10	7	7
N#Cc1cc([N+](=O)[O-])ccc1NS(=O)(=O)c1ccc(NC(=O)c2cn(CCO)c3c(cc(Cl)c4ncccc43)c2=O)cc1	2	8	8	9	8
COc1ccc(NC(=S)NC(=O)c2cn(CCO)c3c(cc(Cl)c4ncccc43)c2=O)cc1	2	8	6	9	8
O=C(Nc1ccc(S(=O)(=O)Nc2ccc([N+](=O)[O-])cc2)cc1)c1cn(CCO)c2c(cc(O)c3ncccc32)c1=O	4	12	10	11	10
O=C(Nc1cccc([N+](=O)[O-])c1)c1cn(CCO)c2c(cc(Cl)c3ncccc32)c1=O	3	9	9	6	9
Cc1ccccc1NC(=O)c1cn(CCO)c2c(cc(Cl)c3ncccc32)c1=O	0	7	4	5	0
Cc1ccc(C)c(NS(=O)(=O)c2ccc(NC(=O)c3cn(CCO)c4c(cc(Cl)c5ncccc54)c3=O)cc2)c1	4	10	10	9	10
COc1ccc(NS(=O)(=O)c2ccc(NC(=O)c3cn(CCO)c4c(cc(O)c5ncccc54)c3=O)cc2)cc1	4	8	8	11	10
O=C(NC(=S)Nc1ccc([N+](=O)[O-])cc1)c1cn(CCO)c2c(cc(O)c3ncccc32)c1=O	4	12	10	9	10
Cc1ccc(NS(=O)(=O)c2ccc(NC(=O)c3cn(CCO)c4c(cc(O)c5ncccc54)c3=O)cc2)cc1	0	5	0	6	5
O=C(NC(=S)Nc1cccc(O)c1)c1cn(CCO)c2c(cc(O)c3ncccc32)c1=O	3	9	7	10	8
Cc1ccc(C)c(NC(=O)c2cn(CCO)c3c(cc(O)c4ncccc43)c2=O)c1	2	9	8	9	8
Cc1ccc(NC(=S)NC(=O)c2cn(CCO)c3c(cc(O)c4ncccc43)c2=O)cc1	1	6	4	6	0
O=C(Nc1ccc(S(=O)(=O)Nc2ccc([N+](=O)[O-])cc2)cc1)c1cn(CCO)c2c(cc(Cl)c3ncccc32)c1=O	3	11	9	10	9
O=C(Nc1cccc(Cl)c1)c1cn(CCO)c2c(cc(Cl)c3ncccc32)c1=O	3	7	7	9	8
Cc1ccc(C)c(NS(=O)(=O)c2ccc(NC(=O)c3cn(CCO)c4c(cc(O)c5ncccc54)c3=O)cc2)c1	4	10	11	9	11
Cc1ccc(NS(=O)(=O)c2ccc(NC(=O)c3cn(CCO)c4c(cc(Cl)c5ncccc54)c3=O)cc2)cc1	1	5	7	6	5
O=C(Nc1ccc(S(=O)(=O)Nc2ccccc2)cc1)c1cn(CCO)c2c(cc(Cl)c3ncccc32)c1=O	2	6	7	10	8
Cc1ccc(C)c(NC(=O)c2cn(CCO)c3c(cc(Cl)c4ncccc43)c2=O)c1	0	10	8	9	8
Cc1cccc(NS(=O)(=O)c2ccc(NC(=O)c3cn(CCO)c4c(cc(Cl)c5ncccc54)c3=O)cc2)c1	0	0	4	6	0
COc1ccccc1NC(=O)c1cn(CCO)c2c(cc(Cl)c3ncccc32)c1=O	3	8	8	10	9
